Assay results reported in patent US10765114B2, “4-amino-6-(pyridyl and 2-substitutedphenyl)-picolinates and 6-amino-2-(pyridyl and 2-substitutedphenyl)-pyrimidine-4-carboxylates and their use as herbicides” (Dow AgroSciences LLC, priority 2013, dated 2020).

How the values were obtained:
[1] = system: test plant species in Wheat and Barley; experiment: Post-Emergent Test III (Wheat and Barley), further species of Table 9; type: in vivo; details: for Visual Growth Reduction (%) 21 Days After Application, CHEAL: CHEAL lambsquarters (Chenopodium album); for Visual Growth Reduction (%) 21 Days After Application, CHEAL / Visual Growth Reduction (%) 21 Days After Application, GALAP / Visual Growth Reduction (%) 21 Days After Application, STEME / Visual Growth Reduction (%) 21 Days After Application, VIOTR: post-emergent; for GR50, CHEAL / GR50, GALAP / GR50, STEME / GR50, VIOTR: growth reduction of 50%; for GR50, CHEAL / GR80, CHEAL / GR90, CHEAL / GR50, GALAP / GR80, GALAP / GR90, GALAP / GR50, STEME / GR80, STEME / GR90, STEME / GR50, VIOTR / GR80, VIOTR / GR90, VIOTR: probit analysis, 21 days; for GR80, CHEAL / GR80, GALAP / GR80, STEME / GR80, VIOTR: growth reduction of 80%; for GR90, CHEAL / GR90, GALAP / GR90, STEME / GR90, VIOTR: growth reduction of 90%; for Visual Growth Reduction (%) 21 Days After Application, GALAP: GALAP cleavers (Galium aparine); for Visual Growth Reduction (%) 21 Days After Application, STEME: STEME common chickweed (Stellaria media); for Visual Growth Reduction (%) 21 Days After Application, VIOTR: VIOTR wild pansy (Viola tricolor)
Protocol: (§1) Seeds of the desired test plant species were planted in Sun Gro MetroMix® 306 planting mixture, which typically has a pH of 6.0 to 6.8 and an organic matter content of about 30 percent, in plastic pots with a surface area of 103.2 square centimeters (cm^2). When required to ensure good germination and healthy plants, a fungicide treatment and/or other chemical or physical treatment was applied. The plants were grown for 7-36 days in a greenhouse with an approximate 14 h photoperiod which was maintained at about 18° C. during the day and 17° C. during the night. Nutrients and water were added on a regular basis and supplemental lighting was provided with overhead metal halide 1000-Watt lamps as necessary. The plants were employed for testing when they reached the second or third true leaf stage.
(§2) A weighed amount, determined by the highest rate to be tested, of each test compound was placed in a 25 mL glass vial and was dissolved in 4 mL of a 97:3 v/v mixture of acetone and DMSO to obtain concentrated stock solutions. […] The concentrated stock solutions obtained were diluted with 20 mL of an aqueous mixture containing acetone, water, isopropyl alcohol, DMSO, Agri-Dex crop oil concentrate, and X-77 surfactant in a 48:39:10:1.5:1.5:0.02 v/v ratio to obtain spray solutions containing the highest application rates. Additional application rates were obtained by serial dilution of 12 mL of the high rate solution into a solution containing 2 mL of 97:3 v/v mixture of acetone and DMSO and 10 mL of an aqueous mixture containing acetone, water, isopropyl alcohol, DMSO, Agri-Dex crop oil concentrate, and X-77 surfactant in a 48:39:10:1.5:1.5:0.02 v/v ratio to obtain ½×, ¼×, ⅛× and 1/16× rates of the high rate. Compound requirements are based upon a 12 mL application volume at a rate of 187 liters per hectare (L/ha). Formulated compounds were applied to the plant material with an overhead Mandel track sprayer equipped with 8002E nozzles calibrated to deliver 187 L/ha over an application area of 0.503 square meters at a spray height of 18 inches (43 cm) above the average plant canopy height. Control plants were sprayed in the same manner with the solvent blank.
(§3) The treated plants and control plants were placed in a greenhouse as described above and watered by subirrigation to prevent wash-off of the test compounds. After 21 dAYS, the condition of the test plants as compared with that of the untreated plants was determined visually and scored on a scale of 0 to 100 percent where 0 corresponds to no injury and 100 corresponds to complete kill and presented as indicated in Table A.
(§4) By applying the well-accepted probit analysis as described by J. Berkson in Journal of the American Statistical Society, 48, 565 (1953) and by D. Finney in “Probit Analysis” Cambridge University Press (1952), herbicidal injury of a specific compound at various rates can be used to calculate GR10, GR20, GR50, GR80 and GR90 values, which are defined as growth reduction factors that correspond to the effective dose of herbicide required to provide plant growth reduction (GR) of 10 percent, 20 percent, 50 percent, 80 percent and 90 percent, respectively. Probit analysis was applied to data collected from multiple dose rates of individual compounds utilizing the procedures explained in the following examples. The analysis of those dose rates is captured in the following tables.

[2] = system: BROTE (downy brome); experiment: Post-Emergent Test III (Wheat and Barley); type: in vivo, Bromus tectorum; details: for Visual Growth Reduction (%) 21 Days After Application, BROTE: postemergence; for GR50, BROTE: effective dose for growth reduction of 50 percent; for GR50, BROTE / GR80, BROTE / GR90, BROTE: probit analysis; for GR80, BROTE: effective dose for growth reduction of 80 percent; for GR90, BROTE: effective dose for growth reduction of 90 percent
Protocol: as §1, §2, §3, §4

[3] = system: SINAR (wild mustard); experiment: Post-Emergent Test III (Wheat and Barley); type: in vivo, Sinapis arvensis; details: for Visual Growth Reduction (%) 21 Days After Application, SINAR: postemergence; for GR50, SINAR: effective dose for growth reduction of 50 percent; for GR50, SINAR / GR80, SINAR / GR90, SINAR: probit analysis; for GR80, SINAR: effective dose for growth reduction of 80 percent; for GR90, SINAR: effective dose for growth reduction of 90 percent
Protocol: as §1, §2, §3, §4

| SMILES | Visual Growth Reduction (%) 21 Days After Application, CHEAL ([1]; 17.5 g ai/ha) | Visual Growth Reduction (%) 21 Days After Application, CHEAL ([1]; 35 g ai/ha) | Visual Growth Reduction (%) 21 Days After Application, CHEAL ([1]; 70 g ai/ha) | GR50, CHEAL [1] [g ai/ha] | GR80, CHEAL [1] [g ai/ha] | GR90, CHEAL [1] [g ai/ha] | Visual Growth Reduction (%) 21 Days After Application, GALAP ([1]; 17.5 g ai/ha) | Visual Growth Reduction (%) 21 Days After Application, GALAP ([1]; 35 g ai/ha) | Visual Growth Reduction (%) 21 Days After Application, GALAP ([1]; 70 g ai/ha) | GR50, GALAP [1] [g ai/ha] | GR80, GALAP [1] [g ai/ha] | GR90, GALAP [1] [g ai/ha] | Visual Growth Reduction (%) 21 Days After Application, STEME ([1]; 17.5 g ai/ha) | Visual Growth Reduction (%) 21 Days After Application, STEME ([1]; 35 g ai/ha) | Visual Growth Reduction (%) 21 Days After Application, STEME ([1]; 70 g ai/ha) | GR50, STEME [1] [g ai/ha] | GR80, STEME [1] [g ai/ha] | GR90, STEME [1] [g ai/ha] | Visual Growth Reduction (%) 21 Days After Application, VIOTR ([1]; 17.5 g ai/ha) | Visual Growth Reduction (%) 21 Days After Application, VIOTR ([1]; 35 g ai/ha) | further results |
| --- | --- | --- | --- | --- | --- | --- | --- | --- | --- | --- | --- | --- | --- | --- | --- | --- | --- | --- | --- | --- | --- |
| COC(=O)c1nc(-c2ccc(Br)nc2)c(F)c(N)c1Cl [Compound 22, methyl 4-amino-6′-bromo-5-chloro-3-fluoro-[2,3′-bipyridine]-6-carboxylate] | A (95-100) | A (95-100) | A (95-100) | 2 | 6 | 11 | D (60-74) | B (85-94) | A (95-100) | 11 | 24 | 36 | F (30-44) | E (45-59) | D (60-74) | 28 | >140 | >140 | A (95-100) | A (95-100) | Visual Growth Reduction (%) 21 Days After Application, VIOTR ([1]; 70 g ai/ha): A (95-100); GR50, VIOTR [1]: 4 g ai/ha; GR80, VIOTR [1]: 7 g ai/ha; GR90, VIOTR [1]: 9 g ai/ha |
| Cc1c(-c2cc(N)c(Cl)c(C(=O)O)n2)ccc(Cl)c1Cl [Compound 28] | C (75-84) | C (75-84) | B (85-94) | 1 | 30 | >140 | F (30-44) | E (45-59) | D (60-74) | 29 | 120 | >140 | D (60-74) | C (75-84) | B (85-94) | 11 | 31 | 53 | G (0-29) | G (0-29) | Visual Growth Reduction (%) 21 Days After Application, VIOTR ([1]; 70 g ai/ha): G (0-29); GR50, VIOTR [1]: >140 g ai/ha; GR80, VIOTR [1]: >140 g ai/ha; GR90, VIOTR [1]: >140 g ai/ha |
| Nc1c(F)c(-c2ccc(C(F)(F)F)nc2)nc(C(=O)O)c1Cl [Compound 46, 4-amino-5-chloro-3-fluoro-6′-(trifluoromethyl)-[2,3′-bipyridine]-6-carboxylic acid] | – | – | – | – | – | – | – | – | – | – | – | – | – | – | – | – | – | – | – | – | Visual Growth Reduction (%) 21 Days After Application, BROTE ([2]; 35 g ai/ha): E (45-59); Visual Growth Reduction (%) 21 Days After Application, BROTE ([2]; 70 g ai/ha): D (60-74); Visual Growth Reduction (%) 21 Days After Application, BROTE ([2]; 140 g ai/ha): B (85-94); GR50, BROTE [2]: 42 g ai/ha; GR80, BROTE [2]: 93 g ai/ha; GR90, BROTE [2]: 140 g ai/ha; Visual Growth Reduction (%) 21 Days After Application, SINAR ([3]; 35 g ai/ha): B (85-94); Visual Growth Reduction (%) 21 Days After Application, SINAR ([3]; 70 g ai/ha): B (85-94); Visual Growth Reduction (%) 21 Days After Application, SINAR ([3]; 140 g ai/ha): A (95-100); GR50, SINAR [3]: 2 g ai/ha; GR80, SINAR [3]: 19 g ai/ha; GR90, SINAR [3]: 62 g ai/ha |
| Cc1c(-c2cc(N)c(Cl)c(C(=O)O)n2)ccc(Cl)c1F [Compound 52] | – | – | – | – | – | – | – | – | – | – | – | – | – | – | – | – | – | – | – | – | Visual Growth Reduction (%) 21 Days After Application, BROTE ([2]; 35 g ai/ha): G (0-29); Visual Growth Reduction (%) 21 Days After Application, BROTE ([2]; 70 g ai/ha): F (30-44); Visual Growth Reduction (%) 21 Days After Application, BROTE ([2]; 140 g ai/ha): D (60-74); GR50, BROTE [2]: 98 g ai/ha; GR80, BROTE [2]: >140 g ai/ha; GR90, BROTE [2]: >140 g ai/ha; Visual Growth Reduction (%) 21 Days After Application, SINAR ([3]; 35 g ai/ha): A (95-100); Visual Growth Reduction (%) 21 Days After Application, SINAR ([3]; 70 g ai/ha): A (95-100); Visual Growth Reduction (%) 21 Days After Application, SINAR ([3]; 140 g ai/ha): A (95-100); GR50, SINAR [3]: 1 g ai/ha; GR80, SINAR [3]: 1 g ai/ha; GR90, SINAR [3]: 5 g ai/ha |
| Nc1cc(-c2ccc(Cl)c(Cl)c2Cl)nc(C(=O)O)c1Cl [Compound 93] | C (75-84) | B (85-94) | B (85-94) | 1 | 16 | 80 | D (60-74) | C (75-84) | C (75-84) | 1 | 88 | >140 | E (45-59) | D (60-74) | D (60-74) | 11 | >140 | >140 | E (45-59) | E (45-59) | Visual Growth Reduction (%) 21 Days After Application, VIOTR ([1]; 70 g ai/ha): E (45-59); GR50, VIOTR [1]: 41 g ai/ha; GR80, VIOTR [1]: >140 g ai/ha; GR90, VIOTR [1]: >140 g ai/ha |
